Results published in patent US20190375708A1 (VenatoRx Pharmaceuticals, Inc., priority 2018, published 2019).
pEC50: −log10 of the molar value.

Experiments:
[1] = tested on: HBV replication in HepAD38 cells; assay: Anti-HBV replication assay in HepAD38 cells (QPCR of extracellular HBV DNA); assay type: cell-based, HBV (genotype D, serotype ayw); conditions: Hepatitis B virus, 168 h, 7 days incubation, extracellular HBV DNA by QPCR, read-out: Anti-HBV EC50
Summary of the method: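 Compounds (1 log10 serial dilutions, […]) were left 7 days on tetracycline-free HepAD38 cultures, a HepG2 line with tet-controlled HBV genotype D. EC50 came from 4-parameter regression of percent inhibition versus vehicle, using supernatant HBV DNA copies/mL measured by QPCR.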

[2] = In vitro cytotoxicity assay (MTT cell viability) in HepG2 cells; assay type: cell-based, human; conditions: human
Summary of the method: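 CC50 values reflect loss of HepG2 viability after a 7-day exposure at 37 °C, 5% CO2. After 3-4 h with MTT, solubilized formazan was quantified at 492 nm relative to vehicle wells.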

## Cc1cc(NC(=O)c2c(C)c(C(=O)C(=O)N[C@H]3CNC(=O)C3(C)C)n(C)c2C)ccc1F [Example 621, (R)-5-(2-((4,4-dimethyl-5-oxopyrrolidin-3-yl)amino)-2-oxoacetyl)-N-(4-fluoro-3-methylphenyl)-1,2,4-trimethyl-1H-pyrrole-3-carboxamide]
[1]
  pEC50: > 7.30
[2]
  CC50 at 7 days: > 30 µM

## Cc1cc(NC(=O)c2c(C)c(C(=O)C(=O)NC3(C)CCS(=O)(=O)CC3)n(C)c2C)ccc1F [Example 622, N-(4-fluoro-3-methylphenyl)-1,2,4-trimethyl-5-(2-((4-methyl-1,1-dioxidotetrahydro-2H-thiopyran-4-yl)amino)-2-oxoacetyl)-1H-pyrrole-3-carboxamide]
[1]
  pEC50: > 7.30
[2]
  CC50 at 7 days: > 30 µM

## Cc1cc(NC(=O)c2c(C)c(C(=O)C(=O)NC3CCS(=O)(=O)C(C)(C)C3)n(C)c2C)ccc1F (stereo not shown) [Example 623, 5-(2-((2,2-dimethyl-1,1-dioxidotetrahydro-2H-thiopyran-4-yl)amino)-2-oxoacetyl)-N-(4-fluoro-3-methylphenyl)-1,2,4-trimethyl-1H-pyrrole-3-carboxamide]
[1]
  pEC50: > 7.30
[2]
  CC50 at 7 days: > 30 µM

## Cc1cc(NC(=O)c2c(C)c(C(=O)C(=O)NC3CC4CCC(C3)S4(=O)=O)n(C)c2C)ccc1F (stereo not shown) [Example 624, 5-(2-((8,8-dioxido-8-thiabicyclo[3.2.1]ctan-3-yl)amino)-2-oxoacetyl)-N-(4-fluoro-3-methylphenyl)-1,2,4-trimethyl-1H-pyrrole-3-carboxamide]
[1]
  pEC50: > 7.30
[2]
  CC50 at 7 days: > 30 µM

## Cc1nc2c(s1)CCCC2NC(=O)C(=O)c1c(C)c(C(=O)Nc2ccc(F)c(C)c2)c(C)n1C (stereo not shown) [Example 625, N-(4-fluoro-3-methylphenyl)-1,2,4-trimethyl-5-(2-((2-methyl-4,5,6,7-tetrahydrobenzo[d]thiazol-4-yl)amino)-2-oxoacetyl)-1H-pyrrole-3-carboxamide]
[1]
  pEC50: > 7.30
[2]
  CC50 at 7 days: > 30 µM

## Cc1cc(NC(=O)c2c(C)c(C(=O)C(=O)NC3CC(=O)Nc4ccccc43)n(C)c2C)ccc1F (stereo not shown) [Example 626, N-(4-fluoro-3-methylphenyl)-1,2,4-trimethyl-5-(2-oxo-2-((2-oxo-1,2,3,4-tetrahdyroquinolin-4-yl)amino)acetyl)-1H-pyrrole-3-carboxamide]
[1]
  pEC50: > 7.30
[2]
  CC50 at 7 days: > 30 µM

## Cc1cc(NC(=O)c2c(C)c(C(=O)C(=O)N[C@H]3CC[C@@H](O)CC3)n(C)c2C)cc(Cl)n1 [Example 628, N-(2-chloro-6-methylpyridin-4-yl)-5-(2-(((1s,4s)-4-hydroxycyclohexyl)amino)-2-oxoacetyl)-1,2,4-trimethyl-1H-pyrrole-3-carboxamide]
[1]
  pEC50: > 7.30
[2]
  CC50 at 7 days: > 30 µM

## C#CCO[C@H]1CC[C@@H](NC(=O)C(=O)c2c(C)c(C(=O)Nc3ccc(F)c(C)c3)c(C)n2C)CC1 [Example 629, N-(4-fluoro-3-methylphenyl)-1,2,4-trimethyl-5-(2-oxo-2-(((1s,4s)-4-(prop-2-yn-1-yloxy)cyclohexxyl)amino)acetyl)-1H-pyrrole-3-carboxamide]
[1]
  pEC50: > 7.30
[2]
  CC50 at 7 days: > 30 µM

## Cc1cc(NC(=O)c2c(C)c(C(=O)C(=O)NC3(c4nc(-c5ccncc5)no4)CCCCC3)n(C)c2C)ccc1F [Example 630, N-(4-fluoro-3-methylphenyl)-1,2,4-trimethyl-5-(2-oxo-2-((1-(3-(pyridin-4-yl)-1,2,4-oxadiazol-5-yl)cyclohexyl)amino)acetyl)-1H-pyrrole-3-carboxamide]
[1]
  pEC50: > 7.30
[2]
  CC50 at 7 days: > 30 µM

## Cc1cc(NC(=O)c2c(C)c(C(=O)C(=O)NC3(c4nc(-c5cnccn5)no4)CCCCC3)n(C)c2C)ccc1F [Example 631, N-(4-fluoro-3-methylphenyl)-1,2,4-trimethyl-5-(2-oxo-2-((1-(3-(pyrazin-2-yl)-1,2,4-oxadiazol-5-yl)cyclohexyl)amino)acetyl)-1H-pyrrole-3-carboxamide]
[1]
  pEC50: > 7.30
[2]
  CC50 at 7 days: > 30 µM

## Cc1nc(C2(NC(=O)C(=O)c3c(C)c(C(=O)Nc4ccc(F)c(C)c4)c(C)n3C)CCCCC2)no1 [Example 632, N-(4-fluoro-3-methylphenyl)-1,2,4-trimethyl-5-(2-((1-(5-methyl-1,2,4-oxadiazol-3-yl)cyclohexyl)amino)-2-oxoacetyl)-1H-pyrrole-3-carboxamide]
[1]
  pEC50: > 7.30
[2]
  CC50 at 7 days: > 30 µM

## Cc1cc(NC(=O)c2c(C)c(C(=O)C(=O)NC3(c4cccs4)CCCCC3)n(C)c2C)ccc1F [Example 633, N-(4-fluoro-3-methylphenyl)-1,2,4-trimethyl-5-(2-oxo-2-((1-(thiophen-2-yl)cyclohexyl)amino)acetyl)-1H-pyrrole-3-carboxamide]
[1]
  pEC50: > 7.30
[2]
  CC50 at 7 days: > 30 µM

## Cc1cc(NC(=O)c2c(C)c(C(=O)C(=O)NC3(c4noc(-c5cccs5)n4)CCCCC3)n(C)c2C)ccc1F [Example 634]
[1]
  pEC50: > 7.30
[2]
  CC50 at 7 days: > 30 µM

## Cc1csc(C2(NC(=O)C(=O)c3c(C)c(C(=O)Nc4ccc(F)c(C)c4)c(C)n3C)CCCC2)n1 [Example 635, N-(4-fluoro-3-methylphenyl)-1,2,4-trimetthyl-5-(2-((1-(4-methylthiazol-2-yl)cyclopentyl)amino)-2-oxoacetyl)-1H-pyrrole-3-carboxamide]
[1]
  pEC50: > 7.30
[2]
  CC50 at 7 days: > 30 µM

## Cc1cc(NC(=O)c2c(C)c(C(=O)C(=O)NC3(c4nnn[nH]4)CCCC3)n(C)c2C)ccc1F [Example 636, 5-(2-((1-(1H-tetrazol-5-yl)cyclopentyl)amino)-2-oxoacetyl)-N-(4-fluoro-3-methylphenyl)-1,2,4-trimethyl-1H-pyrrole-3-carboxamide]
[1]
  pEC50: > 7.30
[2]
  CC50 at 7 days: > 30 µM

## Cc1cc(NC(=O)c2c(C)c(C(=O)C(=O)NC3(c4noc(C5CC5)n4)CCCC3)n(C)c2C)ccc1F [Example 637, 5-(2-((1-(5-cyclopropyl-1,2,4-oxadiazol-3-yl)cyclopentyl)amino)-2-oxoacetyl)-N-(4-fluoro-3-methylphenyl)-1,2,4-trimetthyl-1H-pyrrole-3-carboxamide]
[1]
  pEC50: > 7.30
[2]
  CC50 at 7 days: > 30 µM

## Cc1cc(NC(=O)c2c(C)c(C(=O)C(=O)NC3(C(F)(F)F)CCOCC3)n(C)c2C)cc(Cl)n1 [Example 638, N-(2-chloro-6-methylpyridin-4-yl)-1,2,4-trimethyl-5-(2-oxo-2-((4-(trifluoromethyl)etetrahydro-2H-pyran-4-yl)amino)acetyl)-1H-pyrrole-3-carboxamide]
[1]
  pEC50: > 7.30
[2]
  CC50 at 7 days: > 30 µM

## CC(=O)N1CCC[C@@H](NC(=O)C(=O)c2c(C)c(C(=O)Nc3ccc(F)c(C)c3)c(C)n2C)C1 [Example 639, (R)-5-(2-((1-acetylpiperidin-3-yl)amino)-2-oxoacetyl)-N-(4-fluoro-3-methylphenyl)-1,2,4-trimethyl-1H-pyrrole-3-carboxamide]
[1]
  pEC50: > 7.30
[2]
  CC50 at 7 days: > 30 µM

## Cc1cc(NC(=O)c2c(C)c(C(=O)C(=O)N[C@@H]3CCCN(S(C)(=O)=O)C3)n(C)c2C)ccc1F [Example 640]
[1]
  pEC50: > 7.30
[2]
  CC50 at 7 days: 5 to 30 µM

## CC(=O)N1CCC[C@H](NC(=O)C(=O)c2c(C)c(C(=O)Nc3ccc(F)c(C)c3)c(C)n2C)C1 [Example 641, (S)-5-(2-((1-acetylpiperidin-3-yl)amino)-2-oxoacetyl)-N-(4-fluoro-3-methylphenyl)-1,2,4-trimethyl-1H-pyrrole-3-carboxamide]
[1]
  pEC50: > 7.30
[2]
  CC50 at 7 days: > 30 µM

## Cc1cc(NC(=O)c2c(C)c(C(=O)C(=O)N[C@H]3CCCN(S(C)(=O)=O)C3)n(C)c2C)ccc1F [Example 642, (S)-N-(4-fluoro-3-methylphenyl)-1,2,4-trimethyl-5-(2-((1-(methylsulfonyl)piperidin-3-yl)amino)-2-oxoacetyl)-1H-pyrrole-3-carboxamide]
[1]
  pEC50: > 7.30
[2]
  CC50 at 7 days: 5 to 30 µM

## CC(=O)N1C[C@@H]2[C@H](C1)[C@H]2NC(=O)C(=O)c1c(C)c(C(=O)Nc2ccc(F)c(C)c2)c(C)n1C [Example 643, 5-(2-(((1R,5S,6s)-3-acetyl-3-azabicyclo[3.1.0]hexan-6-yl)amino)-2-oxoacetyl)-N-(4-fluoro-3-methylphenyl)-1,2,4-trimethyl-1H-pyrrole-3-carboxamide]
[1]
  pEC50: 6.30 to 7.30
[2]
  CC50 at 7 days: > 30 µM

## Cc1cc(NC(=O)c2c(C)c(C(=O)C(=O)N[C@H]3[C@@H]4CN(S(C)(=O)=O)C[C@@H]43)n(C)c2C)ccc1F [Example 644, N-(4-fluoro-3-methylphenyl)-1,2,4-trimethyl-5-(2-(((1R,5S,6s)-3-(methylsulfonyl)-3-aabicyclo[3.1.0]hexan-6-yl)amino)-2-oxoacetyl)-1H-pyrrole-3-carboxamide]
[1]
  pEC50: > 7.30
[2]
  CC50 at 7 days: 5 to 30 µM

## CC(=O)N1CC(C)(NC(=O)C(=O)c2c(C)c(C(=O)Nc3ccc(F)c(C)c3)c(C)n2C)C1 [Example 645, 5-(2-((1-acetyl-3-methylazetidin-3-yl)amno)-2-oxoacetyl)-N-(4-fluoro-3-methylphenyl)-1,2,4-trimethyl-1H-pyrrole-3-carboxamide]
[1]
  pEC50: > 7.30
[2]
  CC50 at 7 days: > 30 µM

## Cc1cc(NC(=O)c2c(C)c(C(=O)C(=O)NCCc3ccsc3)n(C)c2C)ccc1F [Example 646, N-(4-fluoro-3-methylphenyl)-1,2,4-trimethyl-5-(2-oxo-2-((2-(thiophen-3-yl)ethyl)amino)acetyl)-1H-pyrrole-3-carboxamide]
[1]
  pEC50: > 7.30
[2]
  CC50 at 7 days: 5 to 30 µM

## Cc1cc(NC(=O)c2c(C)c(C(=O)C(=O)NCC(C)(O)c3cccs3)n(C)c2C)ccc1F (stereo not shown) [Example 647, N-(4-fluoro-3-methylphenyl)-5-(2-((2-hydroxy-2-(thiophen-2-yl)propyl)amino)-2-oxoacetyl)-1,2,4-trimethyl-1H-pyrrole-3-carboxamide]
[1]
  pEC50: > 7.30
[2]
  CC50 at 7 days: > 30 µM
